Laboratory results as given in patent US9718809B2, “Bisarylsulfonamides useful in the treatment of inflammation and cancer” (Kancera AB, priority 2011, dated 2017).
Counter-ions that a name gives are not always drawn. Like-named read-outs stand apart in the source and are kept apart here. Each block holds one compound with its values, some of them ahead of it.

Tests used:
F-2,6-P2 in NUGC-3 cells = assay: Quantification of F-2,6-P2 (Van Schaftingen coupled enzyme assay) in NUGC-3 cells; type: cell-based; conditions: Homo sapiens, NUGC-3 cells, read-out: IC50 based on quantification of F-2,6-P2
Description: A method for quantification of F-2,6-P2 has been described by Van Schaftingen et al. (1982) Eur. J. Biochem. 129, 191-5. This sensitive assay is based on the potent activation of pyrophosphate dependent phosphofructokinase-1 (PPi-PFK) from potato tubers by F-2,6-P2. The use of a series of coupled enzymes leads to a consumption of NADH (nicotinamide adenine dinucleotide) that can be followed spectrophotometrically (an updated protocol is available in Van Schaftingen, (1984) Methods of Enzymatic Analysis (Bergmeyer, H. U., ed.), 3rd edn., vol. 6, pp. 335-341, Verlag Chemie, Weinheim). A protocol for measurements in 96-well microtiter plate format is also available (Bruni et al., (1989) Anal. Biochem. 178, 324-6).
The levels of F-2,6-P2 have been determined using the van Shaftingen assay as described in the protocol below, in six different cancer cell lines endogenously expressing varying levels of the different isoforms of PFK-2/BPase-2 (MCF-7, PANC-1, NUGC-3, SW480, SW620 and MIA PaCa-2). All reagents were purchased from commercial sources or prepared in-house.
Cell line C (NUGC-3, human gastric cancer cell line): NUGC-3 cells (JCRB0822), lot no. 04272009. Growth medium: RPMI1640, #R8758, Sigma-Aldrich; 10% FBS, Invitrogen, 10270-106 or Dulbecco's Modified Eagle's Medium, DMEM, VWR, LONZ12-604F; 10% FBS, Invitrogen, 10270-106. Cells were seeded at a concentration of ˜350 000 cells/mL in 100 μL growth medium (˜35 000 cells/well).
Starvation medium (cell lines A-F): DMEM/F12 without phenol red and glucose free, SVA, 991373; 0.25% FBS, Invitrogen, 10270-106.
Induction medium (cell lines A-F): DMEM/F12 without phenol red and glucose free, SVA, 991373; 0.25% FBS, Invitrogen, 10270-106 (same as starvation medium).
Cells were seeded in 96-well Corning Costar tissue culture plates (CLS3595, Sigma-Aldrich) using the concentrations specified above for the different cell lines A-F and incubated over night at 37° C. and 5% CO2. Row A in the plate was left empty and the cell lines added to rows B-H. Next day the growth medium was discarded and replaced with 100 μL starvation medium. The plates were incubated for 18 h at 37° C. and 5% CO2. After 18 h of starvation the cells were induced with 100 μL compound or control solutions. Compounds were either tested in two concentrations (50 μM and 10 μM) or in dose response curves starting from 50 μM. The final DMSO concentration in assay plates was 0.5%. Also a dose response curve of a reference inhibitor was included in row H on each plate. All compounds were tested in duplicate plates. Compounds (in 96 well CLS 3365, Sigma-Aldrich plates) were serial diluted in DMSO from 10 mM compound DMSO stock solutions with Janus (automated liquid handling workstation from PerkinElmer). Five μL were transferred to a Greiner deep well plate (736-0155, VWR) with 495 μL starvation medium. The final start concentration of compounds in the dilution plate was 100 μM, 1% DMSO. For compounds tested as single points, 10 mM compound solutions were diluted five fold in DMSO to 2 mM, followed by the transfer of 5 μL to separate dilution plates with 495 μL starvation medium. The final concentrations of compounds in these dilution plates were 100 or 20 μM, respectively, and final concentration of DMSO was 1%. The plates were incubated at 37° C. and 5% CO2 for 1 h, followed by the addition of 10 μL 20 mM D-glucose in starvation medium. Controls, with and without 1 mM glucose, were included in row B. The final assay volume was 210 μL per well. After 2 h of incubation at 37° C. and 5% CO2, the supernatants were discarded and the cells lysed by the addition of 25 μL 250 mM NaOH. The plates were incubated at 37° C. and 5% CO2 for 5 min followed by an addition of 75 μL MilliQ dH2O. The supernatants were further diluted with 210 μL MilliQ dH2O to a final concentration of 20 mM NaOH. 200 μL were transferred to NUNC 96-well plates (7322661, VWR) and the plates were sealed and stored at −20° C. until analysis. […]

PANC-1 cells = assay: Inhibition of cancer cell proliferation, total cellular protein (Sulphorhodamine B), PANC-1; conditions: Homo sapiens, 72 h, read-out: IC50 based on quantitation of total cellular protein after treatment
Method: (§1) To assess the antiproliferative response elicited by the compounds of the present invention in different tumour cell lines, total cellular protein in samples was quantified using the Sulphorhodamine B kit, TOX6, (Sigma-Aldrich). The protocol is based on quantitation of total cellular protein after indicated treatments and incubation times using the Sulphorhodamine B kit, TOX6, (Sigma-Aldrich).
(§2) Briefly, after protein precipitation using TCA according to the manufacturer's instructions, the sulphorhodamine dye (80 μL/well) was added to the air-dried wells. After 20 min incubation at room temperature, the dye was discarded and the samples were gently rinsed with 1% HOAc until clear. After air drying, bound dye was solubilised in 200 μL 10 mM Tris base, and the absorbance of dye was measured at 565 nm. To quantify growth, samples were collected also at t=0 h, and the resulting absorbance was set to 100%.
(§3) For experiments studying the effect of the herein described compounds per se, i.e. without combination treatment with cisplatin, the above protocol was applied with the following modifications. See Table II for details for each specific cell line. Briefly, cells were plated at a density of 6,000 cells/well 96-well Corning Costar tissue culture plates (CLS3596, Sigma-Aldrich) in assay medium and allowed to attach over night at 37° C., 5% CO2. Day 2 the compounds were diluted ½ in dose response curve mode in 100% DMSO, required volume was transferred to assay medium to a maximal DMSO concentration of 0.1%. The diluted compounds were added to the cells with a starting dose response concentration of 100 μM. All compounds were tested in duplicate plates.
as §2, with “After” for “Briefly, after”, “sulforhodamine B” for “sulphorhodamine”, “(50” for “(80”, “100” for “200”, “530 nm and a background absorbance (subtract from the measurement at 530 nm) at 690” for “565”, “h.” for “h, and the resulting absorbance was set to 100%.”

[1] = Cell toxicity, CellTiter-Blue Cell Viability Assay; conditions: human, MIA PaCa-2 pancreatic carcinoma cells, MIA PaCa-2 cells, 72 h culture, read-out: IC50 based on cell toxicity
Method: The CellTiter-Blue® Cell Viability Assay provides a homogeneous, fluorometric method for estimating the number of viable cells present in multi-well plates. It uses the indicator dye resazurin to measure the metabolic capacity of cells. Viable cells retain the ability to reduce resazurin into resorufin, which is highly fluorescent.
Stock solutions (10 or 100 mM in DMSO) of compounds were serially diluted 1:2 in 11 concentrations. 25 nL/well (100 mM stock) or 50 nL/well (10 mM stock) were acoustically dispensed in assay plates with EDC acoustic dispenser. Final starting conc. in assay was 20 μM (0.2% DMSO) or 100 μM (0.1% DMSO) for test compounds.
Cells (MIA-PaCa-2; pancreatic carcinoma) were seeded in assay plates (384-well black/clear, Greiner #781091) pre-dispensed with compounds, 25 μL/well, and cultured for 72 h. The cell concentration was 750 cells/well. After 72 h culture, Celltiter Blue reagent was added (5 μL/well) and the plates were incubated for 2 h. The plates were read in an Envision fluorescence reader with Ex544 nm/Em590 nm. Results were calculated as % cytotoxicity compared to background (cells treated with 0.2% DMSO).

F-2,6-P2 in PANC-1 cells = assay: Quantification of F-2,6-P2 (Van Schaftingen coupled enzyme assay) in PANC-1 cells; type: cell-based, human; conditions: Homo sapiens; PANC-1 cells; read-out: IC50 based on quantification of F-2,6-P2
Procedure, shortened: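 PANC-1 cells (~25 000/well) starved 18 h in glucose-free 0.25% FBS medium, treated 1 h with compound (50 and 10 μM, or dose response from 50 μM; 0.5% DMSO), then glucose added for 2 h at 37 °C. Cells lysed in NaOH; F-2,6-P2 quantified by PPi-PFK coupled NADH-consumption spectrophotometry.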

NUGC-3 cells = assay: Inhibition of cancer cell proliferation, total cellular protein (Sulphorhodamine B), NUGC-3; conditions: Homo sapiens, 72 h, read-out: IC50 based on quantitation of total cellular protein after treatment
Method: as §1, §2, §3
as §2, with “After” for “Briefly, after”, “sulforhodamine B” for “sulphorhodamine”, “(50” for “(80”, “100” for “200”, “530 nm and a background absorbance (subtract from the measurement at 530 nm) at 690” for “565”, “h.” for “h, and the resulting absorbance was set to 100%.”

- IC50 (F-2,6-P2 in NUGC-3 cells): 2.8 µM
Structure (SMILES): O=C(OCCCN1CCOCC1)c1ccc(NS(=O)(=O)c2cc(-c3ccc4c(c3)OCO4)c(Cl)s2)cc1O [Example 162, 3-Morpholin-4-ylpropyl 4-({[4-(1,3-benzodioxol-5-yl)-5-chloro-2-thienyl]sulfonyl}amino)-2-hydroxybenzoate trifluoroacetate]

- IC50 (PANC-1 cells): 15.6 µM
Structure (SMILES): CC(C)OC(=O)c1ccc(NS(=O)(=O)c2cc(Cl)c(Cl)s2)cc1O [Example 68, Isopropyl 4-{[(4,5-dichloro-2-thienyl)sulfonyl]amino}-2-hydroxybenzoate]

Structure (SMILES): O=C(OCC1CCOC1)c1ccc(NS(=O)(=O)c2cc(Cl)c(Cl)s2)cc1O (centres unmarked) [Example 75, Tetrahydrofuran-3-ylmethyl 4-{[(4,5-dichloro-2-thienyl)sulfonyl]amino}-2-hydroxybenzoate]
- IC50 at 72 h [1]: 25.3 µM

- IC50 (F-2,6-P2 in PANC-1 cells): 0.8 µM
- IC50 (F-2,6-P2 in NUGC-3 cells): 0.9 µM
Structure (SMILES): COC(=O)c1ccc(NS(=O)(=O)c2cc(Cl)c(Cl)s2)cc1O [Example 27, Methyl 4-{[(4,5-dichloro-2-thienyl)sulfonyl]amino}-2-hydroxybenzoate]

Structure (SMILES): O=C(OCCCN1CCOCC1)c1ccc(NS(=O)(=O)c2cccc(-c3cc(F)ccc3O)c2)cc1O [Example 160, 3-Morpholin-4-ylpropyl 4-{[(5′-fluoro-2′-hydroxybiphenyl-3-yl)sulfonyl]amino}-2-hydroxybenzoate trifluoroacetate]
- IC50 at 72 h [1]: 3.6 µM

- IC50 (F-2,6-P2 in NUGC-3 cells): 1.2 µM
Structure (SMILES): CC(CCN1CCOCC1)OC(=O)c1ccc(NS(=O)(=O)c2cc(Cl)c(Cl)s2)cc1O (centres unmarked) [Example 193]

- IC50 (NUGC-3 cells): 6.8 µM
Structure (SMILES): O=C(OCCOc1ccccc1)c1ccc(NS(=O)(=O)c2cccc(-c3cc(F)ccc3O)c2)cc1O [Example 203, 2-Phenoxyethyl 4-{[(5′-fluoro-2′-hydroxybiphenyl-3-yl)sulfonyl]amino}-2-hydroxybenzoate]

- IC50 (NUGC-3 cells): 13 µM
Structure (SMILES): COC(=O)c1ccc(NS(=O)(=O)c2cccc(-c3cc(F)ccc3O)c2)cc1O [Example 134, Methyl 4-{[(5′-fluoro-2′-hydroxybiphenyl-3-yl)sulfonyl]amino}-2-hydroxybenzoate]

Structure (SMILES): CC(C)(C)OC(=O)N1CCC(OC(=O)c2ccc(NS(=O)(=O)c3c(Cl)sc(Cl)c3Cl)cc2O)C1 (centres unmarked) [Example 205, tert-Butyl 3-[(2-hydroxy-4-{[(2,4,5-trichloro-3-thienyl)sulfonyl]amino}benzoyl)oxy]pyrrolidine-1-carboxylate]
- IC50 at 72 h [1]: 17.7 µM

- IC50 (F-2,6-P2 in NUGC-3 cells; under hypoxia (0.6-1% O2)): 5.6 µM
Structure (SMILES): Cn1c(COC(=O)c2ccc(NS(=O)(=O)c3cc(Cl)c(Cl)s3)cc2O)cnc1[N+](=O)[O-] [Example 202, (1-Methyl-2-nitro-1H-imidazol-5-yl)methyl 4-{[(4,5-dichlorothiophen-2-yl)sulfonyl]amino}-2-hydroxybenzoate]

- IC50 (F-2,6-P2 in NUGC-3 cells): 1.4 µM
Structure (SMILES): COCC(COC)OC(=O)c1ccc(NS(=O)(=O)c2cc(Cl)cc(Cl)c2)cc1O [Example 191, 2-Methoxy-1-(methoxymethyl)ethyl 4-{[(3,5-dichlorophenyl)sulfonyl]amino}-2-hydroxybenzoate]

Structure (SMILES): CCC(COC(=O)c1ccc(NS(=O)(=O)c2cccc(-c3cc(F)ccc3O)c2)cc1O)OC (centres unmarked) [Example 182, 2-Methoxybutyl 4-{[(5′-fluoro-2′-hydroxybiphenyl-3-yl)sulfonyl]amino}-2-hydroxybenzoate]
- IC50 at 72 h [1]: 6.3 µM

- IC50 (F-2,6-P2 in NUGC-3 cells): 5.1 µM
Structure (SMILES): COC(=O)c1ccc(NS(=O)(=O)c2cccc(-c3cc(F)ccc3F)c2)cc1O [Example 153, Methyl 4-{[(2′,5′-difluorobiphenyl-3-yl)sulfonyl]amino}-2-hydroxybenzoate]

- IC50 (PANC-1 cells): 30.2 µM
Structure (SMILES): O=C(OCCCN1CCOCC1)c1ccc(NS(=O)(=O)c2cc(-c3ccc4c(c3)CCO4)c(Cl)s2)cc1O [Example 163, 3-Morpholin-4-ylpropyl 4-({[5-chloro-4-(2,3-dihydro-1-benzofuran-5-yl)-2-thienyl]sulfonyl}amino)-2-hydroxybenzoate trifluoroacetate]

- IC50 (PANC-1 cells): 20.6 µM
Structure (SMILES): O=C(OCCCN1CCOCC1)c1ccc(NS(=O)(=O)c2c(Cl)sc(Cl)c2Br)cc1O [Example 199, 3-Morpholin-4-ylpropyl 4-{[(4-bromo-2,5-dichlorothiophen-3-yl)sulfonyl]amino}-2-hydroxybenzoate trifluoroacetate]

- IC50 (F-2,6-P2 in PANC-1 cells): 2.3 µM
Structure (SMILES): COC(=O)c1ccc(NS(=O)(=O)c2cc(Cl)sc2Cl)cc1O [Example 25, Methyl 4-{[(2,5-dichloro-3-thienyl)sulfonyl]amino}-2-hydroxybenzoate]
